Assay results taken from DBAASP.
Converted amounts (≈) assume the structure as drawn. Blank lines part the entries; values can stand above or below the compound they belong to.

Assays:
Assay in all cases: ≥ marks a high value that may be exact or a test limit, other limits are often not marked, values filed in µg/mL are converted to µM
[1] = test system: Bacillus subtilis ATCC 6633
[2] = test system: Candida albicans ATCC 10231
[3] = test system: Escherichia coli ATCC 25922
[4] = test system: Staphylococcus aureus ATCC 25923
[5] = test system: Staphylococcus aureus ATCC 2592
[6] = test system: Klebsiella pneumoniae ATCC 13883
[7] = test system: Pseudomonas aeruginosa PAO1
[8] = test system: Staphylococcus aureus USA 300
Candida albicans = test system: Candida albicans
Escherichia coli = test system: Escherichia coli
Staphylococcus aureus = test system: Staphylococcus aureus
Bacillus subtilis = test system: Bacillus subtilis
[9] = test system: Candida albicans ATCC 2002
[10] = test system: Pseudomonas aeruginosa ATCC 27853
[11] = test system: Staphylococcus aureus ATCC 33591
Acinetobacter baumannii = test system: Acinetobacter baumannii
[12] = test system: Enterococcus faecalis ATCC 29212
[13] = test system: Staphylococcus aureus ATCC 29213

MIC [1]: ≥ 54.5 µM
MIC [2]: 54.5 µM (≈ 75 µg/mL)
MIC [3]: 54.5 µM (≈ 75 µg/mL)
MIC [4]: 54.5 µM (≈ 75 µg/mL)
SMILES: C[C@H](N)C(=O)N[C@@H](CCCN=C(N)N)C(=O)N[C@@H](Cc1c[nH]c2ccccc12)C(=O)N[C@@H](CCCN=C(N)N)C(=O)N[C@@H](Cc1ccccc1)C(=O)N[C@@H](CCCCN)C(=O)N[C@@H](Cc1c[nH]c2ccccc12)C(=O)N[C@@H](C)C(=O)N[C@@H](CCCCN)C(=O)N[C@@H](CCCCN)C(=O)O [ARWRFKWAKK]

MIC [1]: 18.6 µM (≈ 25 µg/mL)
MIC [5]: 9.3 µM (≈ 12.5 µg/mL)
SMILES: CC[C@H](C)[C@H](NC(=O)CNC(=O)[C@H](C)NC(=O)[C@@H](NC(=O)[C@H](CC(C)C)NC(=O)CNC(=O)[C@@H]1CCCN1C(=O)[C@H](CC(C)C)NC(=O)[C@@H](N)Cc1ccccc1)[C@@H](C)CC)C(=O)N[C@@H](C)C(=O)N[C@@H](CCCCN)C(=O)N[C@@H](CCSC)C(=O)N[C@@H](CC(C)C)C(N)=O [FLPGLIAGIAKML]

MIC [3]: > 25 µM
MIC [6]: 25 µM (≈ 30.3 µg/mL)
MIC [7]: > 25 µM
MIC [8]: 25 µM (≈ 30.3 µg/mL)
SMILES: CC(C)C[C@H](NC(=O)[C@H](C)NC(=O)[C@H](CCCCN)NC(=O)CNC(=O)[C@H](CC(C)C)NC(=O)[C@H](C)NC(=O)[C@H](CCCCN)NC(=O)[C@H](CC(C)C)NC(=O)[C@H](C)NC(=O)[C@H](CO)NC(=O)[C@H](CC(C)C)NC(=O)[C@H](C)NC(=O)CN)C(N)=O [GALSALKALGKAL]

MIC [3]: 25 µM (≈ 31.3 µg/mL)
MIC [6]: 25 µM (≈ 31.3 µg/mL)
MIC [7]: > 25 µM
MIC [8]: 25 µM (≈ 31.3 µg/mL)
SMILES: CC(C)C[C@H](NC(=O)[C@H](CC(C)C)NC(=O)[C@H](CCCCN)NC(=O)CNC(=O)[C@H](CC(C)C)NC(=O)[C@H](C)NC(=O)[C@H](CCCCN)NC(=O)[C@H](CC(C)C)NC(=O)[C@H](C)NC(=O)[C@H](CO)NC(=O)[C@H](CC(C)C)NC(=O)[C@H](C)NC(=O)CN)C(N)=O [GALSALKALGKLL]

MIC (Candida albicans): 13.3 µM (≈ 32 µg/mL)
MIC (Escherichia coli): 13.3 µM (≈ 32 µg/mL)
MIC (Staphylococcus aureus): 13.3 µM (≈ 32 µg/mL)
SMILES: CC[C@H](C)[C@H](NC(=O)[C@H](Cc1cnc[nH]1)NC(=O)[C@H](CCCCN)NC(=O)[C@@H](NC(=O)[C@@H](NC(=O)[C@H](CC(=O)O)NC(=O)[C@H](CC(C)C)NC(=O)[C@H](Cc1ccccc1)NC(=O)CN)C(C)C)C(C)C)C(=O)NCC(=O)N[C@@H](CCCCN)C(=O)N[C@@H](C)C(=O)N[C@@H](C)C(=O)N[C@@H](CC(C)C)C(=O)NCC(=O)N[C@@H](C)C(=O)N[C@H](C(=O)N[C@H](C(=O)N[C@@H](Cc1cnc[nH]1)C(=O)N[C@@H](CC(C)C)C(=O)N[C@H](C(=O)N[C@@H](CC(N)=O)C(=O)N[C@@H](CCC(N)=O)C(N)=O)[C@@H](C)CC)[C@@H](C)O)C(C)C [GFLDVVKHIGKAALGAVTHLINQ]

MIC (Candida albicans): 34.7 µM (≈ 50 µg/mL)
MIC (Staphylococcus aureus): > 69.3 µM
SMILES: CC[C@H](C)[C@H](NC(=O)[C@H](CCCN=C(N)N)NC(=O)[C@H](CC(C)C)NC(=O)CNC(=O)[C@H](CCCCN)NC(=O)CNC(=O)[C@@H]1CCCN1C(=O)[C@H](CC(C)C)NC(=O)[C@H](CC(N)=O)NC(=O)[C@@H]1CCCN1C(=O)[C@H](CO)NC(=O)[C@H](Cc1ccccc1)NC(=O)CN)C(=O)N[C@@H](CO)C(=O)O [GFSPNLPGKGLRIS]

MIC (Bacillus subtilis): 29.8 µM (≈ 99.9 µg/mL)
MIC [9]: 3.72 µM (≈ 12.5 µg/mL)
MIC [3]: 14.9 µM (≈ 50 µg/mL)
MIC [5]: 14.9 µM (≈ 50 µg/mL)
SMILES: CC[C@H](C)[C@H](NC(=O)[C@H](CCCCN)NC(=O)[C@H](CC(N)=O)NC(=O)[C@H](CC(C)C)NC(=O)[C@@H](NC(=O)[C@@H](NC(=O)[C@@H](NC(=O)[C@H](C)NC(=O)[C@H](C)NC(=O)[C@H](CC(N)=O)NC(=O)[C@H](CCCCN)NC(=O)[C@H](CC(C)C)NC(=O)CNC(=O)[C@H](CCC(=O)O)NC(=O)[C@H](CCCCN)NC(=O)[C@@H](NC(=O)[C@H](CO)NC(=O)[C@H](CC(=O)O)NC(=O)[C@H](Cc1c[nH]c2ccccc12)NC(=O)[C@H](Cc1ccccc1)NC(=O)CN)C(C)C)C(C)C)[C@@H](C)O)[C@@H](C)CC)C(=O)N[C@@H](CCCCN)C(=O)N[C@H]1CSSC[C@@H](C(=O)N2CCC[C@H]2C(=O)N2CCC[C@H]2C(=O)N[C@@H](C)C(=O)O)NC(=O)[C@H](CCC(=O)O)NC(=O)[C@H](CO)NC(=O)[C@H]([C@@H](C)CC)NC(=O)[C@H](CCCCN)NC1=O [GFWDSVKEGLKNAAVTILNKIKCKISECPPA]

SMILES: C[C@H](NC(=O)[C@H](CCCCN)NC(=O)[C@H](Cc1ccc(O)cc1)NC(=O)[C@H](CCCCN)NC(=O)[C@H](CCCCN)NC(=O)[C@H](CCCCN)NC(=O)[C@H](Cc1ccc(O)cc1)NC(=O)[C@H](CCCN=C(N)N)NC(=O)[C@H](CCCCN)NC(=O)[C@@H](N)CCCCN)C(=O)N[C@@H](Cc1ccc(O)cc1)C(=O)N[C@@H](CCCCN)C(=O)N1CCC[C@H]1C(=O)N[C@@H](Cc1ccc(O)cc1)C(=O)N[C@@H](CCCCN)C(=O)N[C@@H](CCCCN)C(=O)N[C@@H](CCCCN)C(=O)N[C@@H](CCCCN)C(=O)N[C@@H](CCCCN)C(=O)N[C@@H](Cc1ccccc1)C(N)=O [KKRYKKKYKAYKPYKKKKKF]
MIC [3]: 12.5 µM (≈ 33.5 µg/mL)
MIC [10]: 100 µM (≈ 268 µg/mL)
MIC [4]: 35.4 µM (≈ 94.7 µg/mL)
MIC [11]: ≥ 50 µM

MIC [3]: 32 µM (≈ 68.6 µg/mL)
MIC [11]: ≥ 32 µM
SMILES: CC[C@H](C)[C@H](NC(=O)[C@H](CCC(N)=O)NC(=O)[C@H](CC(C)C)NC(=O)[C@H](CCC(N)=O)NC(=O)[C@@H](NC(=O)[C@H](CCCCN)NC(=O)[C@H](Cc1ccccc1)NC(=O)[C@H](Cc1c[nH]c2ccccc12)NC(=O)[C@@H](N)CCCCN)[C@@H](C)CC)C(=O)N[C@@H](CCCCN)C(=O)N[C@@H](CCCCN)C(=O)N[C@@H](Cc1c[nH]c2ccccc12)C(=O)N[C@@H](CCCCN)C(=O)N[C@@H](CC(N)=O)C(=O)N[C@@H](CCCCN)C(=O)N[C@@H](CCCCN)C(N)=O [KWFKIQLQIKKWKNKK]

MIC (Acinetobacter baumannii): 13.5 µM (≈ 32 µg/mL)
MIC [12]: > 13.5 µM
MIC [3]: 5.06 µM (≈ 12 µg/mL)
MIC [10]: 6.74 µM (≈ 16 µg/mL)
MIC [13]: > 13.5 µM
SMILES: CC(C)C[C@H](NC(=O)[C@H](CC(C)C)NC(=O)[C@H](CCCNC(=N)N)NC(=O)[C@H](CCCCN)NC(=O)[C@H](CCCNC(=N)N)NC(=O)[C@H](CC(C)C)NC(=O)[C@H](CCCCN)NC(=O)[C@H](CCCNC(=N)N)NC(=O)[C@H](CC(C)C)NC(=O)[C@H](CC(C)C)NC(=O)[C@H](CC(C)C)NC(=O)[C@H](CCCNC(=N)N)NC(=O)[C@H](CCCCN)NC(=O)[C@H](CCCNC(=N)N)NC(=O)[C@H](CC(C)C)NC(=O)[C@H](CCCCN)NC(=O)[C@H](CCCNC(=N)N)NC(=O)[C@@H](N)CC(C)C)C(=O)O [LRKLRKRLLLRKLRKRLL]

MIC [3]: 32 µM (≈ 71.3 µg/mL)
MIC [11]: ≥ 64 µM
SMILES: CC[C@H](C)[C@H](NC(=O)[C@H](CCCCN)NC(=O)[C@@H](NC(=O)[C@H](CCC(N)=O)NC(=O)[C@@H](N)CCCN=C(N)N)[C@@H](C)CC)C(=O)N[C@@H](Cc1c[nH]c2ccccc12)C(=O)N[C@@H](Cc1ccccc1)C(=O)N[C@@H](CCC(N)=O)C(=O)N[C@@H](CC(N)=O)C(=O)N[C@@H](CCCN=C(N)N)C(=O)N[C@@H](CCCN=C(N)N)C(=O)N[C@@H](CC(C)C)C(=O)N[C@@H](CCCCN)C(=O)N[C@@H](Cc1c[nH]c2ccccc12)C(=O)N[C@@H](CCCCN)C(=O)N[C@@H](CCCCN)C(N)=O [RQIKIWFQNRRLKWKK]

MIC (Bacillus subtilis): ≥ 39.8 µM
MIC [9]: 19.9 µM (≈ 60 µg/mL)
MIC [3]: 39.8 µM (≈ 120 µg/mL)
MIC [5]: 4.98 µM (≈ 15 µg/mL)
SMILES: CC[C@H](C)[C@H](NC(=O)[C@H](CCC(N)=O)NC(=O)[C@H](CCCCN)NC(=O)[C@H](Cc1c[nH]c2ccccc12)NC(=O)[C@H](CC(C)C)NC(=O)[C@H](CCC(N)=O)NC(=O)CNC(=O)[C@H](CC(C)C)NC(=O)[C@H](CCCCN)NC(=O)[C@H](C)NC(=O)[C@H](CCC(=O)O)NC(=O)[C@H](CCCCN)NC(=O)[C@@H](NC(=O)[C@H](CCSC)NC(=O)[C@@H](NC(=O)[C@@H](NC(=O)[C@@H](NC(=O)[C@@H](N)CO)[C@@H](C)CC)[C@@H](C)CC)[C@@H](C)O)[C@@H](C)O)C(=O)N[C@@H](C)C(=O)N[C@H]1CSSC[C@@H](C(=O)O)NC(=O)[C@H]([C@@H](C)O)NC(=O)[C@H](CC(N)=O)NC(=O)[C@H](Cc2ccc(O)cc2)NC(=O)[C@H](CC(C)C)NC(=O)[C@H](CCCN=C(N)N)NC1=O [SIITMTKEAKLGQLWKQIACRLYNTC]

MIC (Candida albicans): 200 µM (≈ 536 µg/mL)
MIC (Escherichia coli): 20 µM (≈ 53.6 µg/mL)
MIC (Staphylococcus aureus): 100 µM (≈ 268 µg/mL)
SMILES: CC[C@H](C)[C@H](NC(=O)[C@H](CCCCN)NC(=O)[C@H](CS)NC(=O)[C@H](C)NC(=O)[C@@H](NC(=O)[C@H](Cc1ccccc1)NC(=O)CNC(=O)[C@H](CC(C)C)NC(=O)CNC(=O)[C@@H](NC(=O)[C@H](CCCCN)NC(=O)CNC(=O)[C@H](CC(C)C)NC(=O)[C@H](CC(N)=O)NC(=O)[C@H](CCCN=C(N)N)NC(=O)[C@H](CC(C)C)NC(=O)[C@@H](NC(=O)[C@H](CO)NC(=O)[C@H](CC(C)C)NC(=O)[C@H](CCSC)NC(=O)[C@@H](N)CO)C(C)C)C(C)C)C(C)C)C(=O)N[C@@H](CC(N)=O)C(=O)N[C@@H](CCCCN)C(=O)N[C@@H](CCC(N)=O)C(=O)N[C@@H](CS)C(=O)O [SMLSVLRNLGKVGLGFVACKINKQC]
